In patent EP0818453B1, “Benzothiophene compounds and methods of use” (ELI LILLY AND COMPANY, priority 1996, dated 1998):
Marks after values point to notes of the source that are not given here.

System: ovariectomized rats
Test: Ovariectomized rat model of postmenopausal hyperlipidemia (serum cholesterol, uterine weight, uterine eosinophil peroxidase)
Format: in vivo
Settings: for Serum Cholest. % Dec.: decrease versus ovariectomized controls; for Uterine Eosinophil (Vmax): eosinophil peroxidase, Vmaximum; for Uterine Weight % Inc: increase versus ovariectomized controls
Procedure: Experimental models of postmenopausal hyperlipidemia are known in the art. Germane to this invention is the ovariectomized rat model which is detailed in U.S. 5,464,845.
Data presented in Table 1 show comparative results among ovariectomized rats, rats treated with 17-a-ethynyl estradiol(EE2), and rats treated with certain compounds of this invention. […] This uterine response to estrogen is well recognized in the art.
As expressed in the data below, estrogenicity also was assessed by evaluating the response of eosinophil infiltration into the uterus.
The data presented in Table 1 reflect the response per treatment group.

| SMILES | Serum Cholest. % Dec. (0.001 mg/kg PO) | Serum Cholest. % Dec. (0.01 mg/kg PO) | Serum Cholest. % Dec. (0.1 mg/kg PO) | Serum Cholest. % Dec. (1.0 mg/kg PO) | Serum Cholest. % Dec. (10.0 mg/kg PO) | Uterine Eosinophil (Vmax) (0.001 mg/kg PO) | Uterine Weight % Inc (0.001 mg/kg PO) | Uterine Eosinophil (Vmax) (0.01 mg/kg PO) | Uterine Weight % Inc (0.01 mg/kg PO) | Uterine Eosinophil (Vmax) (0.1 mg/kg PO) | Uterine Weight % Inc (0.1 mg/kg PO) | uterine weight (0.1 mg/kg/day orally, versus ovariectomized animals, result in words) | serum cholesterol (orally administered at 0.1 mg/kg/day, result in words) | eosinophil infiltration into the uterus (stromal layer of ovariectomized rat uteri, result in words) |
| --- | --- | --- | --- | --- | --- | --- | --- | --- | --- | --- | --- | --- | --- | --- |
| C[C@]12CC[C@@H]3c4ccc(O)cc4CC[C@H]3[C@@H]1CC[C@@H]2O [17-b-Estradiol] | 67.6* % | 57.5* % | 58.7* % | – | – | – | – | – | – | – | – | – | – | – |
| Cl.O=C(c1ccc(-c2ccc(OCCN3CCCCC3)cc2)cc1)c1c(-c2ccc(O)cc2)sc2cc(O)ccc12 [Compound 5, [2-(4-Hydroxyphenyl)-6-hydroxybenzo[b]thien-3-yl] [4'-[2-(1-piperidinyl)ethoxy]biphenyl-4-yl]methanone hydrochloride] | – | 15.9* % | 66.7* % | 87.3* % | – | – | – | – | – | – | – | – | – | – |
| O=C(c1ccc2cc(OCCN3CCCCC3)ccc2c1)c1c(-c2ccc(O)cc2)sc2cc(O)ccc12 [Compound 10, [2-(4-Hydroxyphenyl)-6-hydroxybenzo[b]thien-3-yl][6-[2-(1-piperidinyl)ethoxy]naphth-2-yl]methanone] | – | – | 39.4* % | 59.3* % | 69.1* % | – | – | – | – | – | – | – | – | – |
| C#C[C@]1(O)CC[C@H]2[C@@H]3CCc4cc(O)ccc4[C@H]3CC[C@@]21C [EE2, 17-a-ethynyl estradiol] | -1.9% | 12% | 77.7* % | – | – | 20* | 35.8* % | 25.6* | 61.0* % | 276.6* | 129.6* % | substantially greater than the uterine weight of the ovariectomized animals | caused a decrease in serum cholesterol | substantial and expected increase in eosinophil infiltration |
